Results as given in publication PMC6272674, “Selected Compounds Structurally Related to Acyclic Sesquiterpenoids and Their Antibacterial and Cytotoxic Activity” (Molecules, 2015).
≈ marks a conversion by molar mass, not a printed value.

Columns and labels:
[1] = system: Enterococcus faecalis ATCC 51299; experiment: Micro-dilution broth MIC, Enterococcus faecalis; type: cell-based; settings: ATCC51299, 24 h, 37 °C, read-out: Minimum Inhibitory Concentrations MIC
Protocol: (§1) The standard strains, Gram-positive: Staphylococcus aureus ATCC […], Enterococcus faecalis Van B ATCC 51299 and Enterococcus faecium VA sensitive ATCC 35667, and Gram-negative: Escherichia coli ATCC 25922, Klebsiella pneumoniae ATCC 700603 and Acinetobacter baumannii ATCC 19606, came from a collection of the Environmental Biology Department, Medical University of Łódź. The standard strains were cultivated in Columbia Agar Medium and incubated at 37 °C for 24 h in aerobic conditions.
(§2) The antibacterial activity of the racemates and E/Z-mixtures was investigated using the micro‑dilution broth method. The compounds were diluted in ethanol. This stock solution was mixed with 100 µL of Mueller-Hinton broth to obtain concentrations from 10 µg/mL to 80 µg/mL. The mixtures were then transferred to 96-well microtiter plates. The microbial suspension was standardised to a cell density of 1.5 × 10^8 CFU, which was equal to an optical density of 0.5 on the Mc Farland scale by a bio-Merieux densitometer; one well was filled with broth only to act as a control for strain growth.

[2] = system: Escherichia coli ATCC 25922; experiment: Micro-dilution broth MIC, Escherichia coli; type: cell-based; settings: ATCC25922, 24 h, 37 °C, read-out: Minimum Inhibitory Concentrations MIC
Protocol: as §1, §2

[3] = system: Enterococcus faecium ATCC 35667; experiment: Micro-dilution broth MIC, Enterococcus faecium; type: cell-based; settings: ATCC35667, 24 h, 37 °C, read-out: Minimum Inhibitory Concentrations MIC
Protocol: as §1, §2

[4] = system: Klebsiella pneumoniae ATCC 700603; experiment: Micro-dilution broth MIC, Klebsiella pneumoniae; type: cell-based; settings: ATCC700603, 24 h, 37 °C, read-out: Minimum Inhibitory Concentrations MIC
Protocol: as §1, §2

[5] = system: Acinetobacter baumannii ATCC 19606; experiment: Micro-dilution broth MIC, Acinetobacter baumannii; type: cell-based; settings: ATCC19606, 24 h, 37 °C, read-out: Minimum Inhibitory Concentrations MIC
Protocol: as §1, §2

[6] = system: Staphylococcus aureus ATCC 43300; experiment: Micro-dilution broth MIC, Staphylococcus aureus; type: cell-based; settings: ATCC43300, 24 h, 37 °C, read-out: Minimum Inhibitory Concentrations MIC
Protocol: as §1, §2

Keratinocytes HaCaT = experiment: MTT viability, HaCaT; type: cell-based, human; settings: Homo sapiens, 24 h, range 10–1000 µM, read-out: half maximal inhibitory concentration (IC50), interpolated
Protocol: (§3) Cell lines and in vitro culture conditions: The human promyelocytic leukaemia cell line HL-60 was obtained from the Centre of Molecular and Macromolecular Biology in Łódź, Poland and was cultured in RPMI 1640 medium with 20% heat-inactivated fetal bovine serum (FBS). To reduce spontaneous differentiation, the cells were never allowed to exceed a concentration of 1.0 × 10^6 cells/mL. The human keratinocyte cell line HaCaT was obtained from Cell Lines Service, Germany (CLS) and cultured in DMEM medium with 10% FBS. Human colorectal adenocarcinoma HT29 and normal epithelial IEC-6 cell lines (from ATCC) were cultured in DMEM medium with 10% FBS. The human skin melanoma cell line MEWO (from CLS) was cultured in DMEM:F12 supplemented with 2 mM L-glutamine and 10% FBS. Human fibroblasts from gingiva isolated from original tissue, HFIB-G, (from Provitro) were cultured in Quantum 333 (from Immunique). The media were supplemented with 100 U/mL penicillin and 100 µg/mL streptomycin; all media components were obtained from Life Technologies. The adherent cell lines used in the studies were seeded on microplates before they exceeded 80% of confluence. Cells were cultured at 37 °C in 5% CO2 air atmosphere/95% air atmosphere.
(§4) Cytotoxic activity: The cells (the density for HL-60 was 0.5 × 10^4 cells/100 µL, otherwise it was 1 × 10^4 cells/100 µL) were plated into each well of 96-well microtiter plates and, after their attachment to the plate surface, treated with 10 µL of the indicated concentrations of compounds for 24 h. Viability was determined by MTT assay following the treatment. MTT (3-[4.5-dimethylthiazol-2-yl]-2.5-diphenyltetrazolium bromide; Sigma, St. Louis, MO, USA) solution was added to each well and incubated for another 4 h. The resulting MTT-formazan product was dissolved by the addition of lysis buffer (20% SDS and 50% DMF). The amount of formazan was determined by measuring absorbance at 570 nm with a Synergy 2 microplate reader (BioTek, Winooski, VT, USA) operated by the Gen5 program. The experiments were conducted three times with five replications. The results are expressed as an optical density ratio of the treatment to control. All data are presented as means ± SD.

Malignant Melanoma MEWO = experiment: MTT viability, MEWO; type: cell-based, human; settings: Homo sapiens, 24 h, range 10–1000 µM, read-out: half maximal inhibitory concentration (IC50), interpolated
Protocol: as §3, §4

MTT viability, HT29 = type: cell-based, human; settings: human, HT29 colorectal adenocarcinoma cells, 1000 µM (IC50 exceeded 1000 µM), read-out: viability ± standard deviation at 1000 µM
Protocol: as §3, §4

Fibroblasts HFIG = experiment: MTT viability, HFIG; type: cell-based, human; settings: Homo sapiens, Fibroblast, 24 h, range 10–1000 µM, read-out: half maximal inhibitory concentration (IC50), interpolated
Protocol: as §3, §4

MTT viability, IEC6 = type: cell-based; settings: rat, IEC-6 small intestine epithelial cells, 1000 µM (IC50 exceeded 1000 µM), read-out: viability ± standard deviation at 1000 µM
Protocol: as §3, §4

[7] = system: Promyelocytic Leukaemia HL-60; experiment: MTT viability, HL-60; type: cell-based, human; settings: Homo sapiens, HL-60, 24 h, HL-60, MTT, range 10–1000 µM, read-out: half maximal inhibitory concentration (IC50), interpolated
Protocol: as §3, §4

| Structure (SMILES) | MIC [1] | MIC [2] | MIC [3] | MIC [4] | MIC [5] | MIC [6] | IC50 (Malignant Melanoma MEWO) | IC50 [7] | IC50 (Keratinocytes HaCaT) | viability at 24 h, 1000 µM (MTT viability, HT29) | IC50 (Fibroblasts HFIG) | viability at 24 h, 1000 µM (MTT viability, IEC6) |
| --- | --- | --- | --- | --- | --- | --- | --- | --- | --- | --- | --- | --- |
| O=C(O)c1cn(C2CC2)c2cc(N3CCNCC3)c(F)cc2c1=O [Ciprofloxacin, reference compound] | 2 µg/mL (≈ 6.04 µM) | 4 µg/mL (≈ 12.1 µM) | 8 µg/mL (≈ 24.1 µM) | 2 µg/mL (≈ 6.04 µM) | 4 µg/mL (≈ 12.1 µM) | 8 µg/mL (≈ 24.1 µM) |  |  |  |  |  |  |
| CC(C)=CCCC(C)/C=C/CCC(C)=CC=O (stereo not drawn) [Compound 19, (6E)-3,8,12-Trimethyltrideca-2,6,11-trienal] | 34 µg/mL (≈ 145 µM) | 44 µg/mL (≈ 188 µM) | 38 µg/mL (≈ 162 µM) | 36 µg/mL (≈ 154 µM) | 42 µg/mL (≈ 179 µM) | 28 µg/mL (≈ 119 µM) | 600 µM | 550 µM | 650 µM | 96% | 750 µM | 94% |
| CC(C)=CCCC(C)CC(C)=CC=O (stereo not drawn) [Compound 21, 3,5,9-Trimethyldeca-2,8-dienal] | 38 µg/mL (≈ 196 µM) | 54 µg/mL (≈ 278 µM) | 42 µg/mL (≈ 216 µM) | 48 µg/mL (≈ 247 µM) | 52 µg/mL (≈ 268 µM) | 32 µg/mL (≈ 165 µM) | 640 µM | 600 µM | 830 µM | 98% | 830 µM | 91% |
| CC(C)=CCCC(C)CCC(C)=CC=O (stereo not drawn) [Compound 22, 3,6,10-Trimethylundeca-2,9-dienal] | 24 µg/mL (≈ 115 µM) | 44 µg/mL (≈ 211 µM) | 46 µg/mL (≈ 221 µM) | 36 µg/mL (≈ 173 µM) | 36 µg/mL (≈ 173 µM) | 26 µg/mL (≈ 125 µM) | 700 µM | 600 µM | 880 µM | 93% | 740 µM | 76% |

Now from value to molecule, other results behind:

| MIC [1] | MIC [2] | MIC [3] | MIC [4] | MIC [5] | MIC [6] | IC50 (Malignant Melanoma MEWO) | IC50 [7] | Structure (SMILES) | IC50 (Keratinocytes HaCaT) | viability at 24 h, 1000 µM (MTT viability, HT29) | IC50 (Fibroblasts HFIG) | viability at 24 h, 1000 µM (MTT viability, IEC6) |
| --- | --- | --- | --- | --- | --- | --- | --- | --- | --- | --- | --- | --- |
| 22 µg/mL (≈ 88.6 µM) | 52 µg/mL (≈ 209 µM) | 28 µg/mL (≈ 113 µM) | 46 µg/mL (≈ 185 µM) | 46 µg/mL (≈ 185 µM) | 18 µg/mL (≈ 72.5 µM) | 630 µM | 502 µM | CC(C)=CCCC(C)C(C)=CCCC(C)=CC=O (stereo not drawn) [Compound 18, 3,7,8,12-Tetramethyltrideca-2,6,11-trienal] | 800 µM | 98% | 690 µM | 79% |
| 20 µg/mL (≈ 79.9 µM) | 48 µg/mL (≈ 192 µM) | 32 µg/mL (≈ 128 µM) | 38 µg/mL (≈ 152 µM) | 38 µg/mL (≈ 152 µM) | 22 µg/mL (≈ 87.9 µM) | 690 µM | 480 µM | CC(=CC=O)CCC=C(C)C(C)CCCC(C)C (stereo not drawn) [Compound 20, 3,7,8,12-Tetramethyltrideca-2,6-dienal] | 850 µM | 82% | 610 µM | 64% |
| 26 µg/mL (≈ 117 µM) | 46 µg/mL (≈ 207 µM) | 36 µg/mL (≈ 162 µM) | 34 µg/mL (≈ 153 µM) | 36 µg/mL (≈ 162 µM) | 28 µg/mL (≈ 126 µM) | 730 µM | 630 µM | CC(C)=CCCC(C)CC(C)C(C)=CC=O (stereo not drawn) [Compound 23, 3,4,6,10-Tetramethylundeca-2,9-dienal] | 900 µM | 87% | 800 µM | 82% |
